In paper PMC11089204 (Frontiers in Pharmacology, 2024):

How the values were obtained:
[1] = biological target: T1, MAO-A in human liver microsomes (HLM) (Homo sapiens, UniProt P21397); assay: Monoamine oxidase A inhibition in human liver microsomes; type: in vitro ADME; details: for biotransformation on incubation with HLM: 1,000 nM 4-HIAA or 4-HTP incubated with HLM; for metabolite concentration formed from psilocin (mean ± SD) / metabolite formation from psilocin in presence of clorgyline: 1,000 nM psilocin; for metabolite concentration formed from psilocin (mean ± SD): HLM alone, t = 240 min; for metabolite formation from psilocin in presence of clorgyline: HLM with MAO-A inhibitor clorgyline
T1 construct: tissue Corning Life Sciences B.V; host or cells: pooled human liver microsomes
T1 sequence (P21397 1-527): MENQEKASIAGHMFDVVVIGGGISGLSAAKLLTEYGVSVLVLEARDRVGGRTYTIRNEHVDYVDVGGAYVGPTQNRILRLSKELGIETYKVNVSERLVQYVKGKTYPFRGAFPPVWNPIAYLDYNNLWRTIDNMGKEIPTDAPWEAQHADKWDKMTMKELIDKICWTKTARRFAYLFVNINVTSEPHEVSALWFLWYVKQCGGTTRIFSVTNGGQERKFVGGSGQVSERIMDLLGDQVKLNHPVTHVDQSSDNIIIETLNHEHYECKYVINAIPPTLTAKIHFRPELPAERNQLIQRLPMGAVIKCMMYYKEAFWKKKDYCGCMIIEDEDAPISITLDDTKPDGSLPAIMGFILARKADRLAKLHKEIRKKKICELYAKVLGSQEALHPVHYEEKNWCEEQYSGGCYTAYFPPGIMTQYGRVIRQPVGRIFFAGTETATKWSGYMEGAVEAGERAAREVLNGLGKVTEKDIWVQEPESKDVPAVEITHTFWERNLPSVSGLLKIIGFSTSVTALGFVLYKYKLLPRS

human 5-HT2C receptor = biological target: T2, human 5-HT2C receptor (Homo sapiens, UniProt P28335); assay: biochemical; details: HEK 293 membranes, [3H]mesulergine; read-out: h5-HT2C Receptor binding Ki ± SD
T2 construct: expressed in transfected cells; host or cells: HEK 293 membrane preparations
T2 sequence (P28335 33-458): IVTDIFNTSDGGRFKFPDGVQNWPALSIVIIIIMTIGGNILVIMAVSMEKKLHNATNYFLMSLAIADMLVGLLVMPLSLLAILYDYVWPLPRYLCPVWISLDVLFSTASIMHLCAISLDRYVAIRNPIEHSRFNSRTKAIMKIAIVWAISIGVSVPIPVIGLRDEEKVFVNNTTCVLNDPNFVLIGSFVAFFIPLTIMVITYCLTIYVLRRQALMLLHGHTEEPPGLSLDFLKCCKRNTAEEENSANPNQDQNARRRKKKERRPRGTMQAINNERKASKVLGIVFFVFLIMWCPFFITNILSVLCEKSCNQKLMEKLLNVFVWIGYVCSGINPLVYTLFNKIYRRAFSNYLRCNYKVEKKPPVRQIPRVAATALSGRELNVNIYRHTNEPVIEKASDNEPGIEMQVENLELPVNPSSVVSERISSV

human 5-HT2B receptor = biological target: T3, human 5-HT2B receptor (Homo sapiens, UniProt P41595); assay: 5-HT activation potency (IP1 accumulation), 5-HT2B; type: cell-based; details: NIH/3T3 cells, read-out: h5-HT2B Activation potency EC50 ± SD
T3 construct: expressed in transfected cells; host or cells: NIH/3T3
T3 sequence (P41595 whole entry): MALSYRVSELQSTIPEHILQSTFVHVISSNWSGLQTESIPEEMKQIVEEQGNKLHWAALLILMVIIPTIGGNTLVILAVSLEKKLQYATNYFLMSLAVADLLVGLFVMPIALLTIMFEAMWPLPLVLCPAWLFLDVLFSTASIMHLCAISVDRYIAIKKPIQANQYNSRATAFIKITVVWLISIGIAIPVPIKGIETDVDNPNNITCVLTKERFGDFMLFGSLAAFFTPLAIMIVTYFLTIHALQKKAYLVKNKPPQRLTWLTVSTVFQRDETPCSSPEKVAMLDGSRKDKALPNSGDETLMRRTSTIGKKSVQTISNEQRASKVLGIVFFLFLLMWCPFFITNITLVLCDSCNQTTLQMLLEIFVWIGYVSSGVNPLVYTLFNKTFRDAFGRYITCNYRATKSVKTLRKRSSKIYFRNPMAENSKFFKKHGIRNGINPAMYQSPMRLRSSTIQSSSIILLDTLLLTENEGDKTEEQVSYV
Experimental: (§1) NIH/3T3 cells stably expressing the human 5-HT1A, 5-HT2A, and 5-HT2B receptors were seeded at a density of 3,000 cells (5-HT1A and 5-HT2A) or 4,000 cells (5-HT2B) in 384-well plates using Opti-MEM medium from Gibco (ThermoFisher, Life Technologies, Zug, Switzerland). Subsequently, the test compounds were introduced, and the plates were incubated for 90 min at 37°C, followed by a 60 min incubation with Anti-IP1-Cryptate and IP1-d2 at room temperature. The formation of stimulated IP1 was quantified by homogeneous time-resolved fluorescence (HTRF) measurements using a BioTek Synergy H1 microplate reader (Agilent Technologies, Basel, Switzerland). The obtained raw data for receptor activation were subjected to normalization, wherein the baseline signal was set at 0%, and the maximum signal stimulated by 5-HT at the specific receptor was established as 100%.

[2] = cited from earlier work; for fraction of administered psilocybin dose excreted in urine: oral psilocybin, within 24 h (time not stated for 4-HIAA)
human 5-HT2A receptor [3] = biological target: T4, human 5-HT2A receptor (Homo sapiens, UniProt P28223); assay: 5-HT activation potency (IP1 accumulation), 5-HT2A; type: cell-based; parameters: expressed in transfected cells; details: NIH/3T3 cells, read-out: h5-HT2A Activation potency EC50 ± SD
T4 sequence (P28223 whole entry): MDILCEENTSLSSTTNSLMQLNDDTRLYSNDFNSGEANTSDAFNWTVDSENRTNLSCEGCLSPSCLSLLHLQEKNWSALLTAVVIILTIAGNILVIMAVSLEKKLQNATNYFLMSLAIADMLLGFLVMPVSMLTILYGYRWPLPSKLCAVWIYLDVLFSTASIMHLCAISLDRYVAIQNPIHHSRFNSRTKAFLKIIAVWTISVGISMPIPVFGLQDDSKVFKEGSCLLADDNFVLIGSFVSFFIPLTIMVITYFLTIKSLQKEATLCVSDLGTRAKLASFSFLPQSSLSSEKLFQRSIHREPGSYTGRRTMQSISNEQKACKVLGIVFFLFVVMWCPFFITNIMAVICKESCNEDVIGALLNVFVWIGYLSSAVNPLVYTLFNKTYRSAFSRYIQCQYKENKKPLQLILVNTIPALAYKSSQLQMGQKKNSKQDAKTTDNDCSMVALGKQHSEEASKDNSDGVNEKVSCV
Experimental: as §1

human 5-HT2A receptor [4] = biological target: T4, human 5-HT2A receptor; assay: Radioligand receptor binding, 5-HT2A; parameters: expressed in transfected cells; host or cells: HEK 293 membrane preparations; details: HEK 293 membranes, [3H]ketanserin; read-out: h5-HT2A Receptor binding Ki ± SD
recombinant CYP2C19 = biological target: T5, recombinant CYP2C19 (Homo sapiens, UniProt P33261); assay: Incubation with recombinant CYP2C19 enzymes; type: in vitro ADME; details: 1,000 nM psilocin, rec. CYP2C19
T5 construct: purchased Corning Life Sciences B.V
T5 sequence (P33261 whole entry): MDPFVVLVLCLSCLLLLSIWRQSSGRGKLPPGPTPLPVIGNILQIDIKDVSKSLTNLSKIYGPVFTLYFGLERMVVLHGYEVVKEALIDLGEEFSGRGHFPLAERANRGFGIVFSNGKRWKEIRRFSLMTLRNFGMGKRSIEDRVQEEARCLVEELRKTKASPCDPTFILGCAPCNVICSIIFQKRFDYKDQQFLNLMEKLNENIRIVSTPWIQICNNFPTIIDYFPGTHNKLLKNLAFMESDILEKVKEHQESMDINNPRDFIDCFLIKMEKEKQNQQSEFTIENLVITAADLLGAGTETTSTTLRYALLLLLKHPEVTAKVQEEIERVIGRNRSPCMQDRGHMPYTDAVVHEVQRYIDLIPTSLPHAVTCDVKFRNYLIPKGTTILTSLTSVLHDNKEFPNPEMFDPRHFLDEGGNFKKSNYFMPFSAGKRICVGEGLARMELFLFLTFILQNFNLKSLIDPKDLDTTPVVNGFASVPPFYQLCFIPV
Experimental: Corning UltraPool human liver microsomes (HLM) 150 (20 mg/mL), human intestinal microsomes (HIM) pool (10 mg/mL) as well as recombinant human CYP enzymes (with P450 oxidoreductase, OR) including CYP1A2+OR (0.5 nmol), CYP2B6+OR (0.5 nmol), CYP2C8+OR (1.0 nmol), CYP2C9*1+OR (1 nmol), CYP2C19+OR (0.5 nmol), CYP2D6*1+OR (0.5 nmol), CYP2E1+OR + cytochrome b5 (1 nmol), CYP3A4+OR + cytochrome b5 (0.5 nmol), MAO-A (5 mg/mL), MAO-B (5 mg/mL), and UGT1A10 (5 mg/mL) were purchased from Corning Life Sciences B.V (Amsterdam, Netherlands). All microsomes and recombinant enzyme solutions were aliquoted and stored at −80 °C until further use.
The total volume of the reaction mixture was 500 μL. […] Samples were either directly analyzed by liquid chromatography tandem mass spectrometry (LC-MS/MS) or briefly stored at −20°C until analysis.

[5] = test system: serotonin transporter (SERT); parameters: method as in Rickli et al., 2016; details: ref Rickli et al., 2016; cited from earlier work
[6] = humans, ref Holze et al., 2022a
[7] = humans, single oral dose of 25 mg psilocybin, ref Kolaczynska et al., 2021, Holze et al., 2022a

| Structure (SMILES) | biotransformation on incubation with HLM [1] | metabolite concentration formed from psilocin (mean ± SD) [1] | metabolite formation from psilocin in presence of clorgyline [1] | Ki (human 5-HT2C receptor) | EC50 (human 5-HT2B receptor) | fraction of administered psilocybin dose excreted in urine [2, 6] | maximal concentrations relative to psilocin (higher) ([2]; humans, ref Holze et al., 2022a, Becker et al., 2022) | EC50 (human 5-HT2A receptor [3]) | Ki (human 5-HT2A receptor [4]) | metabolism of psilocin (recombinant CYP2C19) | change of psilocin concentration ([1]; 1,000 nM psilocin with HLM) | inhibition of SERT [5] | time of peak plasma concentration ([2]; after oral administration, ref Griffiths et al., 2016, Johnson et al., 2017, Holze et al., 2022a) | plasma elimination half-life in humans ([2]; humans, no reference given) | elimination half-life (t1/2) [2, 7] | psilocin plasma concentrations [2, 7] |
| --- | --- | --- | --- | --- | --- | --- | --- | --- | --- | --- | --- | --- | --- | --- | --- | --- |
| O=C(O)Cc1c[nH]c2cccc(O)c12 [4-HIAA, 4-hydroxyindole-3-acetic acid] | did not lead to any biotransformation | 8.5 ± 3.8 nM | complete inhibition | > 10 µM | > 10 µM | Around 33% | 4–5 fold | > 10 µM | > 10 µM | – | – | – | – | – | – | – |
| OCCc1c[nH]c2cccc(O)c12 [4-HTP, 4-hydroxytryptophol] | did not lead to any biotransformation | 25.3 ± 6.0 nM | complete inhibition | > 10 µM | > 10 µM | – | – | > 10 µM | > 10 µM | – | – | – | – | – | – | – |
| CN(C)CCc1c[nH]c2cccc(O)c12 [psilocin, 4-hydroxy-N,N-dimethyltryptamine] | – | – | – | – | – | 1.5% | – | – | – | did not metabolize | did not visibly decrease | moderately inhibits | around 2 h | approximately 2 h | 2 to 3 h | 15 to 20 ng/mL |
